Earlier results on one compound are cited in patent US20080045604A1, “COMPOSITION AND METHOD FOR FACILITATING THE HEALING OF NON-HEALING AND SLOW-HEALING WOUNDS AND ULCERATIONS” (priority 2004, published 2008).

The subject of one data set is Lemma minor. The following applies: Fitoterapia 2005.
The subject of data set [1] is pathogenic molds and dermatophytes. The following applies: reported medicinal properties.
Another data set relates to Neisseria gonorrhoeae. The following applies: Biological Chemistry 2005.

As to `COc1cc(/C=C/C(=O)CC(=O)/C=C/c2ccc(O)c(OC)c2)ccc1O` [Curcumin, (1E,6E)-1,7-bis(4-hydroxy-3-methoxyphenyl)-1,6-heptadiene-3,5-dione], the “phytotoxic against Lemma minor” value with Lemma minor was 100%. Also, the “antifungal activity / inhibition of pathogenic molds and dermatophytes” value in data set [1] is listed as “no antifungal activity”. The “adherence of bacteria to cells in infection” value in the data set with Neisseria gonorrhoeae was “abolished the adherence of bacteria to cells”.
